# Reference: PMC8863796 (Communications Biology, 2022)
# “And” between values parts separate entries of the source, which are not always exact repeats. Identical values can stand only once. Like-named read-outs stand apart in the source and are kept apart here.
# What was measured:
# [1] = target: T1, SARS-CoV-2 exonuclease complex (nsp14/nsp10) (Severe acute respiratory syndrome coronavirus 2, UniProt P0DTD1); set-up: method as in earlier work; conditions: previously demonstrated; cited from earlier work
# [2] = target: T2, SARS-CoV-2 RdRp complex (nsp12/nsp7/nsp8) (Severe acute respiratory syndrome coronavirus 2, UniProt P0DTD1); assay: Extension reactions of RNA template-loop-primers with nucleotide analogue triphosphates; format: biochemical; conditions: single-base extension of RNA template-loop-primers
# T2 construct: made in house
# Method: In total, 10 µL of 10 µM RNA template-loop-primers (5′-[…]-3′ for RDV-TP extension; 5′-[…]-3′ for SOF-TP extension) in 1 × RdRp reaction buffer was annealed by heating to 75 °C for 3 min and cooling to room temperature. In all, 5 µL of 8 µM RdRp complex (nsp12/nsp7/nsp8)[11],[20] in 1× reaction buffer was added to the annealed RNA template-loop-primer solution and incubated for an additional 10 min at room temperature. Finally, 5 µL of a solution containing 0.2 mM RDV-TP or 2 mM SOF-TP in 1× reaction buffer was added, and incubation was carried out for 2 h at 30 °C. The final concentrations of reagents in the 20 µL extension reactions were 2 µM nsp12/nsp7/nsp8, 5 µM RNA template-loop-primer, 50 µM RDV-TP, and 500 µM SOF-TP. The 1× reaction buffer contains the following reagents: 10 mM Tris-HCl pH 8, 10 mM KCl, 2 mM MgCl2 and 1 mM β-mercaptoethanol. Desalting of the reaction mixture was performed with an Oligo Clean & Concentrator kit (Zymo Research) resulting in ~10 µL purified aqueous RNA solutions. 1 µL of each solution was subjected to MALDI-TOF MS (Bruker ultrafleXtreme) analysis. The remaining ~9 µL extended template-loop-primer solutions were used to test exonuclease activity.
# The RNA template-loop primer (5′-[…]-3′) was annealed at 75 °C for 3 min and cooled to room temperature for 25 min in 1× ThermoPol buffer before adding the other ingredients. The final 20 µL mixture containing 5 µM of the RNA template-loop primer, 250 µM, 500 µM or 1 mM AT-9010, 2 mM MnCl2 and 0.2 unit Therminator II in 1× ThermoPol buffer was incubated in a thermal cycler using the following protocol (28 cycles of 45 °C for 30 s, 55 °C for 30 s, 65 °C for 30 s). Desalting of the reaction mixture was performed with an Oligo Clean & Concentrator kit (Zymo Research) resulting in ~10 µL purified aqueous RNA solutions. 1 µL of each solution was subjected to MALDI-TOF MS (Bruker ultrafleXtreme) analysis. The remaining ~9 µL extended template-loop-primer solutions were used to test exonuclease activity. […]
# [3] = test system: SARS-CoV-2; format: cell-based; set-up: Response: unit not given here; conditions: for Response (percentage of inhibition): Conc1 0 nM
# [4] = target: T1, SARS-CoV-2 exonuclease complex (nsp14/nsp10); format: biochemical
# [5] = test system: SARS-CoV-2; assay: microbe, parasite or virus in culture; format: cell-based; conditions: for virus titer: Calu-3, MOI 0.1, three columns per treatment; for EC50: Severe acute respiratory syndrome coronavirus 2, 48 h, MOI 0.1, 48-72 h, PFU in Vero E6, NS5A inhibitor at fixed concentration in combinations; for fold increase of potency: by Pibrentasvir (0.1 μM)
# [6] = Cytotoxicity assay (XTT); format: cell-based; conditions: human
# Method: Monolayers of 1.5 × 10^4 cells in 96-well plates were treated for 3 days with various concentrations (semi-log dilutions from 1000 to 10 µM) of the antiviral drugs. Then, 5 mg/ml 2,3-bis-(2-methoxy-4-nitro-5-sulfophenyl)-2H-tetrazolium-5-carboxanilide (XTT) in DMEM was added to the cells in the presence of 0.01% N-methyl dibenzopyrazine methyl sulfate (PMS). After incubating for 4 h at 37 °C, the cells were measured in a spectrophotometer at 492 nm and 620 nm.
# [7] = Table S-1, 3 days treatment, XTT, read-out: CC50
# [8] = Drug1 100 nM alone (Drug2 0 nM)
# [9] = Drug1 1000 nM alone (Drug2 0 nM)
# [10] = Drug1 10000 nM alone (Drug2 0 nM)
# [11] = combined with Ombitasvir, Calu-3 cells
compound,measurement,setting,value
COC[C@H]1C[C@@H](c2nc(-c3ccc4c(c3)COc3cc5c(ccc6nc([C@@H]7CC[C@H](C)N7C(=O)[C@@H](NC(=O)OC)C(C)C)[nH]c65)cc3-4)c[nH]2)N(C(=O)[C@H](NC(=O)OC)c2ccccc2)C1 [Velpatasvir],inhibition of SARS-CoV-2 exonuclease,[1],can inhibit the SARS-CoV-2 exonuclease
"O=c1nc(NO)ccn1[C@@H]1O[C@H](COP(=O)(O)OP(=O)(O)OP(=O)(O)O)[C@@H](O)[C@H]1O [NHC-TP, N^4-hydroxycytidine-5’-triphosphate]",incorporation into RNA (template base opposite),[2],incorporated opposite A or G
COC(=O)N[C@H](C(=O)N1CCC[C@H]1c1nc2cc([C@H]3CC[C@H](c4cc5nc([C@@H]6CCCN6C(=O)[C@@H](NC(=O)OC)[C@@H](C)OC)[nH]c5cc4F)N3c3cc(F)c(N4CCC(c5ccc(F)cc5)CC4)c(F)c3)c(F)cc2[nH]1)[C@@H](C)OC [Pibrentasvir],Response (percentage of inhibition),[3]; Conc2 10 nM,2%
same,Response (percentage of inhibition),[3]; Conc2 100 nM,20%
same,Response (percentage of inhibition),[3]; Conc2 1000 nM,50%
same,Response (percentage of inhibition),[3]; Conc2 5000 nM,75%
same,Response,[3]; Drug2 10 nM alone (Drug1 0 nM),2
same,Response,[3]; Drug2 100 nM alone (Drug1 0 nM),20
same,Response,[3]; Drug2 1000 nM alone (Drug1 0 nM),50
same,Response,[3]; Drug2 5000 nM alone (Drug1 0 nM),75
same,combination effect (SynergyFinder),[3]; with Favipiravir,synergistic (scores above 10)
same,combination effect (SynergyFinder),[3]; with RDV,synergistic (scores above 10)
same,combination effect (SynergyFinder),[3]; with Sofosbuvir,additive (between 10 and −10)
same,combination effect (SynergyFinder),[3]; with Tenofovir,additive (between 10 and −10)
same,inhibition of SARS-CoV-2 exonuclease activity,"[4]; 500 nM RNA, 50 nM nsp14/nsp10, 37 °C, 15 min, varying amounts of inhibitor (Pibrentasvir 1, 10, 20 μM)",reduced exonuclease activity in a concentration-dependent manner
same,inhibition of SARS-CoV-2 exonuclease activity,"[4]; 20 μM, Favipiravir-, NHC- and AT-9010-terminated RNA",exonuclease activity was largely abrogated
same,inhibition of SARS-CoV-2 exonuclease activity,"[4]; 20 µM, RNA with delayed termination by Remdesivir, 400 nM RNA",exonuclease activity was inhibited
same,inhibition of SARS-CoV-2 exonuclease activity,"[4]; 20 µM, Sofosbuvir- and Remdesivir-terminated RNA",exonuclease activity was substantially inhibited
same,inhibition of SARS-CoV-2 exonuclease activity,"[4]; 20 µM, Tenofovir-terminated RNA",exonuclease activity was almost completely eliminated
same,EC25,"[5]; Calu-3 cells, concentration used in combinations",0.1 µM
same,CC50 at 3 days,[6]; [7],22 ± 3 µM
"C[C@@]1(F)[C@H](O)[C@@H](COP(=O)(O)OP(=O)(O)OP(=O)(O)O)O[C@H]1n1cnc2c(=O)[nH]c(N)nc21 [AT-9010, 2’-fluoro-2’-methyl guanosine-5’-triphosphate]",incorporation into RNA (template base opposite),[2],incorporated opposite C
"NC(=O)c1nc(F)cn([C@@H]2O[C@H](COP(=O)(O)OP(=O)(O)OP(=O)(O)O)[C@@H](O)[C@H]2O)c1=O [Favipiravir-RTP, Favipiravir-ribofuranosyl-5’-triphosphate]",incorporation into RNA (template base opposite),[2],incorporated into RNA opposite C or U
"CC(C)OC(=O)OCOP(=O)(CO[C@H](C)Cn1cnc2c(N)ncnc21)OCOC(=O)OC(C)C [Tenofovir, Tenofovir disoproxil]",Response,[3]; Drug1 10 nM alone (Drug2 0 nM),5
same,Response,[3]; [8],30
same,Response,[3]; [9],58.46
same,Response,[3]; [10],88.46
same,excision of the incorporated nucleotide analogue from RNA by the exonuclease,"[4]; no inhibitor, 37 °C, 15 min, compared with A-terminated natural RNA",mostly resistant to excision by the SARS-CoV-2 exonuclease
same,virus titer,[5]; Drug Concentration 1 μM,1.02E+06 PFU/mL and 5.76E+05 PFU/mL and 7.98E+05 PFU/mL
same,virus titer,[5]; Drug Concentration 10 μM,8.00E+04 PFU/mL and 4.00E+04 PFU/mL and 6.00E+04 PFU/mL
same,EC50,[5]; Calu-3 cells,4.3 µM
same,fold increase of potency,[5],tenfold
same,CC50 at 3 days,[6]; [7],91 ± 25 µM
"NC(=O)c1nc(F)cnc1O [Favipiravir, 6-fluoro-3-hydroxy-2-pyrazinecarboxamide]",Response,[3]; Drug1 10 nM alone (Drug2 0 nM),10
same,Response,[3]; [8],49
same,Response,[3]; [9],63
same,Response,[3]; [10],70
same,virus titer,[5]; Drug Concentration 0.01 μM,8.96E+05 PFU/mL and 1.41E+06 PFU/mL
same,virus titer,[5]; Drug Concentration 0.1 μM,5.76E+05 PFU/mL and 7.04E+05 PFU/mL
same,virus titer,[5]; Drug Concentration 1 μM,4.48E+05 PFU/mL and 5.12E+05 PFU/mL
same,virus titer,[5]; Drug Concentration 10 μM,4.16E+05 PFU/mL and 2.24E+05 PFU/mL
same,EC50,[5]; Calu-3 cells,7.8 µM
same,fold increase of potency,[5],tenfold
same,inhibition of SARS-CoV-2,[5]; [11],2 log10
same,reduction of virus replication,[5]; [11],99%
same,CC50 at 3 days,[6],670 ± 118 µM
